Measurements published in article PMC12040169 (PLOS Biology, 2025).

Experiment: in vitro
Details: human, hela cells

SMILES	viability at 28.5 h, 10 µM (% viability) [%]	further results
CC(=O)Nc1cccc(NC(=S)Nc2ccc(S(N)(=O)=O)cc2)c1 [CBK267091]	98.4	–
Cc1ccc(Cc2cnc(NC(=O)C3CNC(=O)N3)s2)cc1F (centres unmarked) [CBK305919]	97.8	–
CC(Sc1nc2ccccc2c(=O)n1C1CC1)C(=O)N1CCOCC1 (centres unmarked) [CBK306045]	79.5	–
OC(COc1cccc2c1CCCC2)CN1CCC(O)(c2ccc(Br)cc2)CC1 (centres unmarked) [CBK003584]	72	–
Cc1cc(C)n(C2CCN(Cc3cnn(C4CCCCC4)c3)CC2)n1 [CBK281804]	89.2	–
O=C(/C=C/c1c[nH]c2ccccc12)c1ccc(C(=O)/C=C/c2c[nH]c3ccccc23)cc1 [CBK264224]	106	–
C=CCN(c1ccc(C(=O)O)cc1)S(=O)(=O)c1ccc(/C=C/C(=O)O)cc1 [CBK263364]	95.8	–
COc1ccc(CNc2cncc(-c3ccc(C(C)C)cc3)n2)cc1 [CBK065514]	119	–
OCCN1CCN(c2ncnc3scc(-c4ccccc4)c23)CC1 [CBK287582]	94.6	–
CCOC(=O)C(NC(=O)c1cn[nH]c1)c1cccc(C)c1C (centres unmarked) [CBK304175]	92.8	–
O=C(NCc1cccc(C(F)(F)F)c1)N1CCN(CCc2ccccc2)CC1 [CBK158902]	90.1	–
Cc1nc(C)n(C2CN(S(=O)(=O)c3ccc4scnc4c3)C2)n1 [CBK305889]	95.6	–
CCOC(=O)N1CCC2(CC1)OCc1cc(-c3cccc(F)c3)ccc1O2 [CBK060987]	–	viability at 28.5 h, 10 µM (% viability, bulk resorufin, single well): 104%
COC(=O)c1ccc(NC(=O)CN2CCC(C(N)=O)(N3CCCCC3)CC2)cc1 [CBK268275]	95.5	–
CCC(CNC(=O)c1coc(COc2ccc3sc(C)nc3c2)n1)OC (centres unmarked) [CBK307248]	72.3	–
O=C(c1ccncc1)n1nc(NCc2ccccc2)nc1NCc1ccccc1 [CBK269069]	89.5	–

SMILES	viability at 28.5 h, 10 µM (% viability) [%]	further results
O=C(CSc1ncnc2ccccc12)Nc1nc2ccccc2s1 [CBK287510]	85.5	–
CN(C)c1nc(N(C)C)n(Cc2ccc(F)cc2)n1 [CBK018839]	89.3	–
NC(=O)c1ccc(NC(=O)c2cncc(-c3ccc(C(=O)N4CCOCC4)cc3)c2)cc1 [CBK160214]	106	–
O=C(Nc1cccc(Cn2cccn2)c1)c1csc2ccccc12 [CBK268123]	93.2	–
O=C(O)c1cccnc1SC1CC(=O)N(c2ccc(F)cc2)C1=O (centres unmarked) [CBK265582]	110	–
O=C1Nc2cc(Cl)ccc2C(=O)N2CC[C@H](NC(=O)N3CCOCC3)[C@@H]12 [CBK289340]	87.7	–
CCn1cc(CN(CCO)C(=O)c2cccc(C#N)c2C)cn1 [CBK304196]	109	–
CCN1CCc2cc(-c3cncn3CC(=O)NC(C)(C)C)ccc21 [CBK281698]	94.8	–
O=C(COc1ccc2ccccc2c1)N1CCN(S(=O)(=O)c2ccccc2[N+](=O)[O-])CC1 [CBK264271]	91.8	–
CN(C)S(=O)(=O)c1ccc(-c2nn(-c3ccccc3)cc2/C=C(\C#N)c2nc3ccccc3c(=O)[nH]2)cc1 [CBK266266]	101	–
CN(C)C(=O)OCCn1c(=O)oc2cc(Cl)ccc21 [CBK306455]	–	viability at 28.5 h, 10 µM: 81.9%
O=C(CSCc1ccccc1Br)Nc1ccccc1-c1ccccc1 [CBK265959]	88.4	–
O=C(O)CNS(=O)(=O)c1cccc2nsnc12 [CBK261136]	96.8	–
COc1ccc(CCNC(=O)c2n[nH]c(=O)c3ccccc23)cc1OC [CBK270160]	87.6	–
CCc1nn(CC(=O)N2CCCC2)c(=O)c2cc3ccsc3n12 [CBK284120]	84.2	–
CC(C)(C)OC(=O)N(c1cncc(N2CCNCC2)n1)[C@@H]1CCOc2ccccc21 [CBK172251G]	109	–
